Laboratory results as given in ChEMBL document CHEMBL1138209, “Scaffold of the cyclooxygenase-2 (COX-2) inhibitor carprofen provides Alzheimer gamma-secretase modulators” (J Med Chem, 2006).
Calls of active or inactive are those of the source. The calls are words filed in the database; no cut-off is given here.

What was measured:
[1] = Inhibition of beta amyloid protein 40 in human H4 cells overexpressing APP695; format: cell-based
[2] = Inhibition of beta amyloid protein 42 in human H4 cells overexpressing APP695; format: cell-based
[3] = system: H4; assay: Increase in beta amyloid protein 38 in human H4 cells overexpressing APP695 at 40 uM; format: cell-based
[4] = Inhibition of beta amyloid protein 38 in human H4 cells overexpressing APP695; format: cell-based
[5] = molecular target: Prostaglandin G/H synthase 1 (Homo sapiens) (UniProt P23219); assay: Activity at COX1 at 10 uM
[6] = system: H4; assay: Cytotoxicity against human H4 cells at 40 uM; format: cell-based; conditions: h4, 40 µM
[7] = system: H4; assay: Increase in beta amyloid protein 38 in human H4 cells overexpressing APP695 at 200 uM; format: cell-based
[8] = system: H4; assay: Increase in beta amyloid protein 38 in human H4 cells overexpressing APP695 at 160 uM; format: cell-based
[9] = system: H4; assay: Increase in beta amyloid protein 38 in human H4 cells overexpressing APP695 at 150 uM; format: cell-based

Sequence of Prostaglandin G/H synthase 1 (Homo sapiens) (P23219 whole entry): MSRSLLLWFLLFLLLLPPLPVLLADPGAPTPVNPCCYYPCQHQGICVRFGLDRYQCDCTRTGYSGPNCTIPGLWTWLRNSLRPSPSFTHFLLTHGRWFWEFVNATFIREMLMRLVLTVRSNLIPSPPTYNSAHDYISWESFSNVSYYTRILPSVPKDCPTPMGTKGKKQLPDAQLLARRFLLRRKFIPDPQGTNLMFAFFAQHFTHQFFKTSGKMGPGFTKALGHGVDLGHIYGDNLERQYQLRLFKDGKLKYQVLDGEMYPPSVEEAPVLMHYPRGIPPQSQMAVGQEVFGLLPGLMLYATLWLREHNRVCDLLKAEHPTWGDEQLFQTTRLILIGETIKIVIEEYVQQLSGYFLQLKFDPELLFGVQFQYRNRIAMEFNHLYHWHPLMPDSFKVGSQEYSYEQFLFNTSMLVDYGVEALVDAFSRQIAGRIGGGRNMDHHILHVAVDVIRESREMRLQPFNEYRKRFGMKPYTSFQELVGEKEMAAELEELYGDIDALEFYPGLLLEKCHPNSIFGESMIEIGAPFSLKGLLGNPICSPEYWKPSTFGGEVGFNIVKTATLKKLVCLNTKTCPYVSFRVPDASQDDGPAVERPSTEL

Row | SMILES | IC50 [1] [µM] | IC50 [2] [µM] | Activity [3] | further results
1 | CCCCCCCCn1c2ccc(Cl)cc2c2ccc(C(C)C(=O)O)cc21 (configuration not stated) | > 40 | 6.9 | inactive | –
2 | CC(C(=O)O)c1ccc2c3cc(Cl)ccc3n(S(=O)(=O)c3ccc(F)cc3)c2c1 (configuration not stated) | – | > 40 | inactive | –
3 | CC(C(=O)O)c1ccc2c3cc(Cl)ccc3n(S(=O)(=O)c3ccccc3Br)c2c1 (configuration not stated) | – | 40 | inactive | –
4 | CC(C(=O)O)c1ccc2c3cc(Cl)ccc3n(S(=O)(=O)c3ccc(-c4ccccc4)cc3)c2c1 (configuration not stated) | – | 37 | inactive | –
5 | CC(C(=O)O)c1ccc2c3cc(Cl)ccc3n(S(=O)(=O)c3cccc([N+](=O)[O-])c3)c2c1 (configuration not stated) | – | 39 | inactive | –
6 | CC(C(=O)O)c1ccc2c3cc(Cl)ccc3n(Cc3cccc(OC(F)(F)F)c3)c2c1 (configuration not stated) | > 40 | 7.5 | inactive | –
7 | CCCCCCCCCCn1c2ccc(Cl)cc2c2ccc(C(C)C(=O)O)cc21 (configuration not stated) | > 40 | 2.9 | – | EC50 [4]: 5.8 µM; Activity [5]: inactive
8 | CC(C(=O)O)c1ccc2c3cc(Cl)ccc3n(S(=O)(=O)c3ccc([N+](=O)[O-])cc3)c2c1 (configuration not stated) | – | > 40 | inactive | –
9 | COc1cccc(Cn2c3ccc(Cl)cc3c3ccc(C(C)C(=O)O)cc32)c1 (configuration not stated) | > 40 | 39 | inactive | –
10 | CCCc1ccc(S(=O)(=O)n2c3ccc(Cl)cc3c3ccc(C(C)C(=O)O)cc32)cc1 (configuration not stated) | > 40 | > 40 | inactive | –
11 | CC(C)c1cc(C(C)C)c(S(=O)(=O)n2c3ccc(Cl)cc3c3ccc(C(C)C(=O)O)cc32)c(C(C)C)c1 (configuration not stated) | > 20 | 8.5 | – | EC50 [4]: 9.3 µM; Activity [6]: Toxic
12 | CC(C(=O)O)c1ccc2c3cc(Cl)ccc3n(S(=O)(=O)c3ccccc3)c2c1 (configuration not stated) | – | > 40 | inactive | –
13 | CC(C(=O)O)c1ccc2c3cc(Cl)ccc3n(Cc3cccc([N+](=O)[O-])c3)c2c1 (configuration not stated) | > 40 | 22 | inactive | –
14 | CC(C(=O)O)c1ccc2c3cc(Cl)ccc3n(S(=O)(=O)c3cccc(F)c3)c2c1 (configuration not stated) | – | > 40 | inactive | –
15 | CC(C(=O)O)c1ccc2c3cc(Cl)ccc3n(S(=O)(=O)c3ccc(Br)cc3)c2c1 (configuration not stated) | – | > 40 | inactive | –
16 | CC(C(=O)O)c1ccc2c3cc(Cl)ccc3n(S(=O)(=O)c3cc(C(F)(F)F)cc(C(F)(F)F)c3)c2c1 (configuration not stated) | > 30 | 11 | – | Activity [7]: inactive
17 | CC(C(=O)O)c1ccc2c3cc(Cl)ccc3n(S(=O)(=O)c3cccc(Cl)c3)c2c1 (configuration not stated) | – | > 40 | inactive | –
18 | CCCCCCCCCn1c2ccc(Cl)cc2c2ccc(C(C)C(=O)O)cc21 (configuration not stated) | > 40 | 3 | – | EC50 [4]: 8.1 µM
19 | CC(C(=O)O)c1ccc2c(c1)[nH]c1ccc(Cl)cc12 (racemic) [CARPROFEN] | 133 | 76 | – | Activity [8]: inactive; IC50 [4]: 78 µM
20 | CC(C(=O)O)c1ccc2c3cc(Cl)ccc3n(S(=O)(=O)c3cc(F)cc(F)c3)c2c1 (configuration not stated) | – | > 40 | inactive | –
21 | CC(C(=O)O)c1ccc2c3cc(Cl)ccc3n(S(=O)(=O)c3ccccc3F)c2c1 (configuration not stated) | – | > 40 | inactive | –
22 | CC(C(=O)O)c1ccc2c3cc(Cl)ccc3n(S(=O)(=O)c3ccc(C#N)cc3)c2c1 (configuration not stated) | – | > 40 | inactive | –
23 | CC(C(=O)O)c1ccc2c3cc(Cl)ccc3n(S(=O)(=O)c3cc(Br)c(Br)s3)c2c1 (configuration not stated) | – | > 40 | inactive | –
24 | Cc1ccc(S(=O)(=O)n2c3ccc(Cl)cc3c3ccc(C(C)C(=O)O)cc32)cc1 (configuration not stated) | > 100 | 56 | – | EC50 [4]: 43 µM; Activity [7]: inactive
25 | CCCCCCCCS(=O)(=O)n1c2ccc(Cl)cc2c2ccc(C(C)C(=O)O)cc21 (configuration not stated) | > 40 | 25 | inactive | –
26 | CC(C(=O)O)c1ccc2c3cc(Cl)ccc3n(S(=O)(=O)c3ccc(Cl)cc3)c2c1 (configuration not stated) | – | > 40 | inactive | –
27 | CC(C(=O)O)c1ccc2c3cc(Cl)ccc3n(Cc3cccc(NC(=O)CCCC[C@@H]4SC[C@@H]5NC(=O)N[C@@H]54)c3)c2c1 (some centres not stated) | > 150 | 88 | – | Activity [9]: inactive; Activity [6]: Toxic
